Each structure is given as a SMILES string.

Broadly, the melting point is the temperature, or range, at which the solid turns liquid. `COc1cc(OC)c2c3c(n(Cc4ccccc4)c2c1)CCCC3C(=O)NN` (stereo not drawn) [Example 1, 9-benzyl-5,7-dimethoxy-1,2,3,4-tetrahydrocarbazole-4-carboxylic acid hydrazide] gave a melting point of 189 to 190 °C. Then `COc1cc(OC(C)C(=O)O)c2c3c(C(N)=O)cccc3n(Cc3ccccc3)c2c1` (stereo not drawn) [Example 5, methyl [9-benzyl-4-carbamoyl-7-methoxycarbazol-5-yl]oxyacetic acid], with 170 to 172 °C; and `Cc1ccc(OCC(=O)O)c2c3c(C(N)=O)cccc3n(Cc3ccccc3)c12` [Example 50, [9-benzyl-5-carbamoyl-1-methylcarbazol-4-yl]oxyacetic acid], with 253 to 254 °C; and `NC(=O)c1cccc2c1c1c(OCC(=O)O)ccc(Cl)c1n2Cc1ccccc1` [Example 54, [9-benzyl-5-carbamoyl-1-chlorocarbazol-4-yl]oxyacetic acid], with 240 to 242 °C. With `COc1cc(OC)c2c3c(n(Cc4ccccc4)c2c1)CCCC3C(N)=O` (stereo not drawn) [Example 2, 9-benzyl-5,7-dimethoxy-1,2,3,4-tetrahydrocarbazole-4-carboxamide] the figure was 190 to 192 °C; with `COc1cc(OCC(=O)[O-])c2c3c(n(Cc4ccccc4)c2c1)CCCC3C(N)=O.[Na+]` (stereo not drawn), 251 to 254 °C.

Values taken from patent US6713645B1, “Substituted tricyclics” (Eli Lilly and Company, priority 1996, dated 2004).
